Results from ChEMBL document CHEMBL3046559, “Sterile oat (Avena sterilis L.) cross-resistance profile to ACCase-inhibiting herbicides in Greece” (2012).

Columns and labels:
Assay type in all cases: functional
[1] = test system: Avena sterilis; assay: Herbicidal activity against Avena sterilis accession P01 assessed as weed survival at 4 times field recommended herbicide dose
[2] = test system: Avena sterilis; assay: Herbicidal activity against Avena sterilis accession P14 assessed as weed survival at 8 times field recommended herbicide dose
[3] = test system: Avena sterilis; assay: Herbicidal activity against Avena sterilis accession P05 assessed as weed survival at 32 times field recommended herbicide dose
[4] = test system: Avena sterilis; assay: Herbicidal activity against Avena sterilis accession P22 assessed as weed survival at 16 times field recommended herbicide dose
[5] = test system: Avena sterilis; assay: Herbicidal activity against Avena sterilis accession P18 assessed as weed survival at 1 times field recommended herbicide dose
[6] = test system: Avena sterilis; assay: Herbicidal activity against Avena sterilis accession P21S assessed as weed survival at 1/16 times field recommended herbicide dose
[7] = test system: Avena sterilis; assay: Herbicidal activity against Avena sterilis accession P07 assessed as weed survival at 1 times field recommended herbicide dose
[8] = test system: Avena sterilis; assay: Herbicidal activity against Avena sterilis accession P22 assessed as weed survival at 8 times field recommended herbicide dose
[9] = test system: Avena sterilis; assay: Herbicidal activity against Avena sterilis accession P22 assessed as weed survival at 32 times field recommended herbicide dose
[10] = test system: Avena sterilis; assay: Herbicidal activity against Avena sterilis accession P05 assessed as induction of weed mortality
[11] = test system: Avena sterilis; assay: Herbicidal activity against Avena sterilis accession P07 assessed as induction of weed mortality
[12] = test system: Avena sterilis; assay: Herbicidal activity against Avena sterilis accession P07 assessed as weed survival at 16 times field recommended herbicide dose
[13] = test system: Avena sterilis; assay: Herbicidal activity against Avena sterilis accession P13S assessed as weed survival at 1/4 times field recommended herbicide dose
[14] = test system: Avena sterilis; assay: Herbicidal activity against Avena sterilis accession P21S assessed as induction of weed mortality
[15] = test system: Avena sterilis; assay: Herbicidal activity against Avena sterilis accession P13S assessed as induction of weed mortality
[16] = test system: Avena sterilis; assay: Herbicidal activity against Avena sterilis accession P11 assessed as weed survival at 8 times field recommended herbicide dose
[17] = test system: Avena sterilis; assay: Herbicidal activity against Avena sterilis accession P05 assessed as weed survival at 8 times field recommended herbicide dose
[18] = test system: Avena sterilis; assay: Herbicidal activity against Avena sterilis accession P04 assessed as weed survival at 16 times field recommended herbicide dose
[19] = test system: Avena sterilis; assay: Herbicidal activity against Avena sterilis accession P12 assessed as weed survival at 8 times field recommended herbicide dose
[20] = test system: Avena sterilis; assay: Herbicidal activity against Avena sterilis accession P04 assessed as weed survival at 4 times field recommended herbicide dose
[21] = test system: Avena sterilis; assay: Herbicidal activity against Avena sterilis accession P11 assessed as weed survival at 16 times field recommended herbicide dose
[22] = test system: Avena sterilis; assay: Herbicidal activity against Avena sterilis accession P10S assessed as weed survival at 1/4 times field recommended herbicide dose
[23] = test system: Avena sterilis; assay: Herbicidal activity against Avena sterilis accession P14 assessed as induction of weed mortality
[24] = test system: Avena sterilis; assay: Herbicidal activity against Avena sterilis accession P16 assessed as weed survival at 1 times field recommended herbicide dose
[25] = test system: Avena sterilis; assay: Herbicidal activity against Avena sterilis accession P06S assessed as weed survival at 1/8 times field recommended herbicide dose
[26] = test system: Avena sterilis; assay: Herbicidal activity against Avena sterilis accession P16 assessed as weed survival at 4 times field recommended herbicide dose
[27] = test system: Avena sterilis; assay: Herbicidal activity against Avena sterilis accession P10S assessed as induction of weed mortality
[28] = test system: Avena sterilis; assay: Herbicidal activity against Avena sterilis accession P17 assessed as weed survival at 16 times field recommended herbicide dose
[29] = test system: Avena sterilis; assay: Herbicidal activity against Avena sterilis accession P01 assessed as weed survival at 32 times field recommended herbicide dose
[30] = test system: Avena sterilis; assay: Herbicidal activity against Avena sterilis accession P08 assessed as weed survival at 8 times field recommended herbicide dose
[31] = test system: Avena sterilis; assay: Herbicidal activity against Avena sterilis accession P02 assessed as weed survival at 8 times field recommended herbicide dose
[32] = test system: Avena sterilis; assay: Herbicidal activity against Avena sterilis accession P21S assessed as weed survival at 1/8 times field recommended herbicide dose
[33] = test system: Avena sterilis; assay: Herbicidal activity against Avena sterilis accession P16 assessed as induction of weed mortality
[34] = test system: Avena sterilis; assay: Herbicidal activity against Avena sterilis accession P06S assessed as induction of weed mortality
[35] = test system: Avena sterilis; assay: Herbicidal activity against Avena sterilis accession P19S assessed as weed survival at 1/8 times field recommended herbicide dose
[36] = test system: Avena sterilis; assay: Herbicidal activity against Avena sterilis accession P05 assessed as weed survival at 16 times field recommended herbicide dose
[37] = test system: Avena sterilis; assay: Herbicidal activity against Avena sterilis accession P09 assessed as induction of weed mortality
[38] = test system: Avena sterilis; assay: Herbicidal activity against Avena sterilis accession P17 assessed as weed survival at 8 times field recommended herbicide dose
[39] = test system: Avena sterilis; assay: Herbicidal activity against Avena sterilis accession P22 assessed as weed survival at 4 times field recommended herbicide dose
[40] = test system: Avena sterilis; assay: Herbicidal activity against Avena sterilis accession P21S assessed as weed survival at 1/4 times field recommended herbicide dose
[41] = test system: Avena sterilis; assay: Herbicidal activity against Avena sterilis accession P11 assessed as weed survival at 32 times field recommended herbicide dose
[42] = test system: Avena sterilis; assay: Herbicidal activity against Avena sterilis accession P11 assessed as induction of weed mortality
[43] = test system: Avena sterilis; assay: Herbicidal activity against Avena sterilis accession P10S assessed as weed survival at 1 times field recommended herbicide dose
[44] = test system: Avena sterilis; assay: Herbicidal activity against Avena sterilis accession P11 assessed as weed survival at 1 times field recommended herbicide dose
[45] = test system: Avena sterilis; assay: Herbicidal activity against Avena sterilis accession P01 assessed as induction of weed mortality
[46] = test system: Avena sterilis; assay: Herbicidal activity against Avena sterilis accession P16 assessed as weed survival at 8 times field recommended herbicide dose
[47] = test system: Avena sterilis; assay: Herbicidal activity against Avena sterilis accession P03 assessed as weed survival at 8 times field recommended herbicide dose
[48] = test system: Avena sterilis; assay: Herbicidal activity against Avena sterilis accession P02 assessed as weed survival at 32 times field recommended herbicide dose
[49] = test system: Avena sterilis; assay: Herbicidal activity against Avena sterilis accession P12 assessed as induction of weed mortality
[50] = test system: Avena sterilis; assay: Herbicidal activity against Avena sterilis accession P15 assessed as weed survival at 1 times field recommended herbicide dose
[51] = test system: Avena sterilis; assay: Herbicidal activity against Avena sterilis accession P04 assessed as induction of weed mortality
[52] = test system: Avena sterilis; assay: Herbicidal activity against Avena sterilis accession P07 assessed as weed survival at 32 times field recommended herbicide dose
[53] = test system: Avena sterilis; assay: Herbicidal activity against Avena sterilis accession P18 assessed as induction of weed mortality
[54] = test system: Avena sterilis; assay: Herbicidal activity against Avena sterilis accession P18 assessed as weed survival at 16 times field recommended herbicide dose
[55] = test system: Avena sterilis; assay: Herbicidal activity against Avena sterilis accession P22 assessed as weed survival at 1 times field recommended herbicide dose
[56] = test system: Avena sterilis; assay: Herbicidal activity against Avena sterilis accession P06S assessed as weed survival at 1/32 times field recommended herbicide dose
[57] = test system: Avena sterilis; assay: Herbicidal activity against Avena sterilis accession P07 assessed as weed survival at 4 times field recommended herbicide dose
[58] = test system: Avena sterilis; assay: Herbicidal activity against Avena sterilis accession P05 assessed as weed survival at 1 times field recommended herbicide dose
[59] = test system: Avena sterilis; assay: Herbicidal activity against Avena sterilis accession P12 assessed as weed survival at 1 times field recommended herbicide dose

COCc1cnc(C2=NC(C)(C(C)C)C(=O)N2)c(C(=O)O)c1 (centres undefined) [IMAZAMOX]
9 gAi/ha: GR50 [34]
57%: Survival [25]
40%: Survival [13]
20%: Survival [22]
<50 gAi/ha: GR50 [10] | GR50 [11] | GR50 [23] | GR50 [33] | GR50 [37] | GR50 [42] | GR50 [45] | GR50 [49] | GR50 [51] | GR50 [53]
0%: Survival [1] | Survival [2] | Survival [3] | Survival [4] | Survival [5] | Survival [7] | Survival [8] | Survival [9] | Survival [12] | Survival [16] | Survival [17] | Survival [18] | Survival [19] | Survival [20] | Survival [21] | Survival [24] | Survival [26] | Survival [28] | Survival [29] | Survival [30] | Survival [31] | Survival [36] | Survival [38] | Survival [39] | Survival [41] | Survival [43] | Survival [44] | Survival [46] | Survival [47] | Survival [48] | Survival [50] | Survival [52] | Survival [54] | Survival [55] | Survival [57] | Survival [58] | Survival [59]
14 gAi/ha: GR50 [14]
87%: Survival [32]
80%: Survival [35]
97%: Survival [6] | Survival [56]
8 gAi/ha: GR50 [15]
7 gAi/ha: GR50 [27]
60%: Survival [40]
